Key:
[1] = Phase 2/3 dose-ranging clinical trial of intranasal BHV-3500; type: in vivo, human; settings: intranasal unit doses 5, 10 and 20 mg; treatment of migraine
[2] = Study BHV3500-107 Cohort 1: zavegepant 50 mg SoftGel QD PK (fasted Days 1-10, fed Days 11-14); type: in vivo, humans; settings: for Concentration: Cohort 1, 50 mg QD SoftGel, pre-dose
[3] = Study BHV3500-103 Treatment B: PK after 50 mg x 1 SoftGel orally; type: in vivo, humans; settings: Study 103, 50 mg SoftGel x 1 oral; for AUC(0-t) / AUC(0-inf) / Cmax / Tmax: human, in vivo, po, 50 mg
Experimental: Single-dose: Study BHV3500-103, PK data after 50 mg×1 (2×25 mg) SoftGel administered orally (Treatment B)

[4] = PK exposure from 10 mg intranasal (IN) zavegepant; type: in vivo, human; settings: 10 mg IN
[5] = female, beagle, dog, in vivo, 50 mg
human CGRP = human CGRP (Homo sapiens, UniProt O60894+Q16602); settings: cited from earlier work
in vivo = settings: female, beagle, dog, 50 mg; for AUC(0-t): AUC0-4 hr
[6] = FAO/WHO report; cited from earlier work
[7] = Cohort 1, Day 10, 50 mg QD SoftGel oral, fasted, multiple dose, Max
[8] = Cohort 1, Day 10, 50 mg QD SoftGel oral, fasted, multiple dose, Min
[9] = Day 14 (with food, moderate fat meal) vs. Day 10 (fasted), 50 mg QD SoftGel
[10] = Study 107, Cohort 1, Day 1, 50 mg SoftGel single dose, fasted

Chain of human CGRP (Q16602 23-461): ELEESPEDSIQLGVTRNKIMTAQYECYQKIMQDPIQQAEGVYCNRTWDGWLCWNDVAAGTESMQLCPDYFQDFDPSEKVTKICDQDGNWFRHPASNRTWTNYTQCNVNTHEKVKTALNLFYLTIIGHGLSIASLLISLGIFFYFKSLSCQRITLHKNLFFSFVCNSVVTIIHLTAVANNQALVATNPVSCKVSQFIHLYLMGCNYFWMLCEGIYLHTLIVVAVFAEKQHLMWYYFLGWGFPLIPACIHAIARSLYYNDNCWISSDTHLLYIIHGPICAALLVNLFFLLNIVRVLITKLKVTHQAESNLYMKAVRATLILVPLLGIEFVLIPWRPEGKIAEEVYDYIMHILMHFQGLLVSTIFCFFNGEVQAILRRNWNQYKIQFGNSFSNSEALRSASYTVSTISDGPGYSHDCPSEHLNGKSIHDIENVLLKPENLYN
Chain of human CGRP (O60894 27-148): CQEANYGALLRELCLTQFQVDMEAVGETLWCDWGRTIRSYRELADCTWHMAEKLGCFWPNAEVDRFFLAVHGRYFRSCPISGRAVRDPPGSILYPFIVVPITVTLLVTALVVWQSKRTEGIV

With `Cc1cc(C[C@@H](NC(=O)N2CCC(c3cc4ccccc4[nH]c3=O)CC2)C(=O)N2CCN(C3CCN(C)CC3)CC2)cc2cn[nH]c12` [BHV-3500, (R)-N-(3-(7-methyl-1H-indazol-5-yl)-1-(4-(1-methylpiperidin-4-yl)piperazin-1-yl)-1-oxopropan-2-yl)-4-(2-oxo-1,2-dihydroquinolin-3-yl)piperidine-1-carboxamide] the “lowest fully effective dose” value [1] was 10 mg, the “Pre-dose (C0) concentrations” value ([2]; 50 mg QD SoftGel, Days 1-14) was “largely below the LLOQ” and the Concentration ([2]; Day 6, fasting, Mean) was 0.0936 ng/mL. The Concentration ([2]; Day 10, fasting, Max) was 8.5 ng/mL, the Concentration ([2]; Day 10, fasting, Mean) was 0.0582 ng/mL and the Concentration ([2]; Day 12, moderate fat meal, Mean) was 0.0764 ng/mL. The Concentration ([2]; Day 12, moderate fat meal, Min) was 0 ng/mL, the Concentration ([2]; Day 14, moderate fat meal, Mean) was 0 ng/mL and the Concentration ([2]; Day 14, moderate fat meal, Min) was 0 ng/mL. For the same molecule, the Cmax ([2]; Cohort 1, Day 1, 50 mg SoftGel oral, fasted, single dose, Max) was 13.8 ng/mL, the Residual area ([2]; Cohort 1, Day 1, 50 mg SoftGel oral, fasted, single dose, Median) was 8.9% and the Cmax ([2]; Cohort 1, Day 1, 50 mg SoftGel oral, fasted, single dose, Min) was 1.42 ng/mL. It also gave a Cmax [2, 7] of 46.1 ng/mL, a Tmax [2, 7] of 5 h and a Tmax ([2]; Cohort 1, Day 10, 50 mg QD SoftGel oral, fasted, multiple dose, Mean, listed as Zavegepant) of 2.59 h. It also gave a Cmax [2, 8] of 2.27 ng/mL, a Tmax [2, 8] of 1.5 h and a Cmax ([2]; Cohort 1, Day 14, 50 mg QD SoftGel oral, fed (moderate fat meal), multiple dose, Max) of 3.02 ng/mL. The Tmax ([2]; Cohort 1, Day 14, 50 mg QD SoftGel oral, fed (moderate fat meal), multiple dose, Min) was 2.5 h, the “decrease in extent of absorption (AUC) with food” value [2, 9] was about 65% and the “decrease in rate of absorption (Cmax) with food” value [2, 9] was about 72%. The Tmax ([2]; Day 14, fed (moderate fat meal), multiple dose, 50 mg QD SoftGel, statistic not stated, listed as zavegepant) was 3.6 h, the “AUC0-24, Max” value [2, 10] was 46.3 ng·h/mL and the “AUC0-24, Mean” value [2, 10] was 19.1 ng·h/mL. For the same molecule, the “AUC0-24, Min” value [2, 10] was 4.66 ng·h/mL, the “AUCINF_obs, Max” value [2, 10] was 47.8 ng·h/mL and the “AUCINF_obs, Mean” value [2, 10] was 22.6 ng·h/mL. For the same molecule, the “AUCINF_obs, Min” value [2, 10] was 9.54 ng·h/mL, the “Cmax, Max” value [2, 10] was 13.8 ng/mL and the “Cmax, Min” value [2, 10] was 1.42 ng/mL. The “HL_Lambda_z, Geometric Mean” value [2, 10] was 2.48 h, the “HL_Lambda_z, Max” value [2, 10] was 5.07 h and the “HL_Lambda_z, Mean” value [2, 10] was 2.66 h. The “HL_Lambda_z, Median” value [2, 10] was 2.19 h, the “HL_Lambda_z, Min” value [2, 10] was 1.62 h and the “Tmax, Max” value [2, 10] was 5.00 h. For the same molecule, the “steady state achieved by” value ([2]; concentrations at 8 hours post-dose, multiple dosing 50 mg QD, fasted state) was at most 3 days, the Cmax ([2]; human, in vivo, oral, 50 mg, Day 10, steady state, fasting, 50 mg QD SoftGel, statistic not stated, range 2.3 to 46.1, read-out: Cmax) was 5.7 ng/mL and the AUC(0-t) ([2]; human, in vivo, oral, 50 mg, Day 10, steady state, fasting, 50 mg QD SoftGel, statistic not stated, range 6.7 to 75.4, read-out: AUC0-24) was 20.4 ng·h/mL. For the same molecule, the Tmax ([2]; human, in vivo, oral, 50 mg, Day 10, steady state, fasting, 50 mg QD SoftGel, statistic not stated, read-out: Tmax) was 2 h, the Tmax ([2]; human, in vivo, oral, 50 mg, Day 14, fed (moderate fat meal), multiple dose, 50 mg QD SoftGel, statistic not stated, read-out: Tmax) was 4 h and the Cmax ([2]; human, in vivo, oral, 50 mg, Day 14, fed (moderate fat meal), 50 mg QD SoftGel, statistic not stated, range 1.0 to 3.0, read-out: Cmax) was 1.6 ng/mL. It also gave an AUC(0-t) ([2]; human, in vivo, oral, 50 mg, Day 14, fed (moderate fat meal), 50 mg QD SoftGel, statistic not stated, range 3.7 to 16.6, read-out: AUC0-24) of 7.3 ng·h/mL, an AUC(0-t) ([2]; human, in vivo, oral, 50 mg, Study 107, Cohort 1, Day 1, 50 mg SoftGel single dose, fasted, read-out: AUC0-24, Geometric Mean) of 15.8 ng·h/mL and an AUC(0-t) ([2]; human, in vivo, oral, 50 mg, Study 107, Cohort 1, Day 1, 50 mg SoftGel single dose, fasted, read-out: AUC0-24, Median) of 16.7 ng·h/mL. It also gave an AUC(0-inf) ([2]; human, in vivo, oral, 50 mg, Study 107, Cohort 1, Day 1, 50 mg SoftGel single dose, fasted, read-out: AUCINF_obs, Geometric Mean) of 20 ng·h/mL, an AUC(0-inf) ([2]; human, in vivo, oral, 50 mg, Study 107, Cohort 1, Day 1, 50 mg SoftGel single dose, fasted, read-out: AUCINF_obs, Median) of 20.6 ng·h/mL and a Cmax ([2]; human, in vivo, oral, 50 mg, Study 107, Cohort 1, Day 1, 50 mg SoftGel single dose, fasted, read-out: Cmax, Geometric Mean) of 5.3 ng/mL. The Cmax ([2]; human, in vivo, oral, 50 mg, Study 107, Cohort 1, Day 1, 50 mg SoftGel single dose, fasted, read-out: Cmax, Mean) was 6.32 ng/mL, the Cmax ([2]; human, in vivo, oral, 50 mg, Study 107, Cohort 1, Day 1, 50 mg SoftGel single dose, fasted, read-out: Cmax, Median) was 5.73 ng/mL and the Tmax ([2]; human, in vivo, oral, 50 mg, Study 107, Cohort 1, Day 1, 50 mg SoftGel single dose, fasted, read-out: Tmax, Geometric Mean) was 2.18 h. The Tmax ([2]; human, in vivo, oral, 50 mg, Study 107, Cohort 1, Day 1, 50 mg SoftGel single dose, fasted, read-out: Tmax, Mean) was 2.42 h, the Tmax ([2]; human, in vivo, oral, 50 mg, Study 107, Cohort 1, Day 1, 50 mg SoftGel single dose, fasted, read-out: Tmax, Median) was 2.25 h and the Tmax ([2]; human, in vivo, po, 50 mg, Cohort 1, Day 1, 50 mg SoftGel oral, fasted, single dose, Geometric Mean, read-out: Tmax) was 2.18 h. For the same molecule, the Cmax ([2]; human, in vivo, po, 50 mg, Cohort 1, Day 1, 50 mg SoftGel oral, fasted, single dose, Mean, read-out: Cmax) was 6.32 ng/mL, the Tmax ([2]; human, in vivo, po, 50 mg, Cohort 1, Day 1, 50 mg SoftGel oral, fasted, single dose, Mean, read-out: Tmax) was 2.42 h and the Cmax ([2]; human, in vivo, po, 50 mg, Cohort 1, Day 1, 50 mg SoftGel oral, fasted, single dose, Median, read-out: Cmax) was 6.78 ng/mL. For the same molecule, the Tmax ([2]; human, in vivo, po, 50 mg, Cohort 1, Day 1, 50 mg SoftGel oral, fasted, single dose, Median, read-out: Tmax) was 2.25 h, the Tmax ([2]; human, in vivo, po, 50 mg, Cohort 1, Day 10, 50 mg QD SoftGel oral, fasted, multiple dose, Geometric Mean, read-out: Tmax) was 2.35 h and the Cmax ([2]; human, in vivo, po, 50 mg, Cohort 1, Day 10, 50 mg QD SoftGel oral, fasted, multiple dose, Mean, read-out: Cmax) was 9.71 ng/mL. For the same molecule, the Tmax ([2]; human, in vivo, po, 50 mg, Cohort 1, Day 10, 50 mg QD SoftGel oral, fasted, multiple dose, Mean, read-out: Tmax) was 2.69 h, the Cmax ([2]; human, in vivo, po, 50 mg, Cohort 1, Day 10, 50 mg QD SoftGel oral, fasted, multiple dose, Median, read-out: Cmax) was 4.7 ng/mL and the Tmax ([2]; human, in vivo, po, 50 mg, Cohort 1, Day 10, 50 mg QD SoftGel oral, fasted, multiple dose, Median, read-out: Tmax) was 2 h. The Cmax ([2]; human, in vivo, po, 50 mg, Cohort 1, Day 14, 50 mg QD SoftGel oral, fed (moderate fat meal), multiple dose, Geometric Mean, read-out: Cmax) was 1.62 ng/mL, the Tmax ([2]; human, in vivo, po, 50 mg, Cohort 1, Day 14, 50 mg QD SoftGel oral, fed (moderate fat meal), multiple dose, Geometric Mean, read-out: Tmax) was 3.63 h and the Tmax ([2]; human, in vivo, po, 50 mg, Cohort 1, Day 14, 50 mg QD SoftGel oral, fed (moderate fat meal), multiple dose, Mean, read-out: Tmax) was 3.78 h. For the same molecule, the Cmax ([2]; human, in vivo, po, 50 mg, Cohort 1, Day 14, 50 mg QD SoftGel oral, fed (moderate fat meal), multiple dose, Median, read-out: Cmax) was 1.48 ng/mL, the “AUC0-24, Max” value [3] was 59.0 ng·h/mL and the “AUCINF_obs, Max” value [3] was 60.1 ng·h/mL. The “AUCINF_obs, Min” value [3] was 9.21 ng·h/mL, the “Cmax, Max” value [3] was 26.8 ng/mL and the “Cmax, Min” value [3] was 1.86 ng/mL. For the same molecule, the “HL_Lambda_z, Geometric Mean” value [3] was 2.17 h, the “HL_Lambda_z, Max” value [3] was 4.74 h and the “HL_Lambda_z, Mean” value [3] was 2.28 h. The “HL_Lambda_z, Median” value [3] was 1.98 h, the “HL_Lambda_z, Min” value [3] was 1.48 h and the “Tmax, Min” value [3] was 0.500 h. For the same molecule, the AUC(0-t) ([3]; read-out: AUC0-24, Geometric Mean) was 21 ng·h/mL, the AUC(0-t) ([3]; read-out: AUC0-24, Mean) was 25.3 ng·h/mL and the AUC(0-t) ([3]; read-out: AUC0-24, Median) was 18.8 ng·h/mL. It also gave an AUC(0-inf) ([3]; read-out: AUCINF_obs, Geometric Mean) of 21.5 ng·h/mL, an AUC(0-inf) ([3]; read-out: AUCINF_obs, Mean) of 25.8 ng·h/mL and an AUC(0-inf) ([3]; read-out: AUCINF_obs, Median) of 19.1 ng·h/mL. It also gave a Cmax ([3]; read-out: Cmax, Geometric Mean) of 7.6 ng/mL, a Cmax ([3]; read-out: Cmax, Mean) of 10.8 ng/mL and a Cmax ([3]; read-out: Cmax, Median) of 7.06 ng/mL. It also gave a Tmax ([3]; read-out: Tmax, Geometric Mean) of 1.65 h, a Tmax ([3]; read-out: Tmax, Mean) of 1.98 h and a Tmax ([3]; read-out: Tmax, Median) of 1.75 h. The AUC [4] was 33.0 ng·h/mL, the “AUC0-4 hr, Median/Average” value [5] was 44.4 ng·h/mL and the “Cmax, Median/Average” value [5] was 31.7 ng/mL. For the same molecule, the “Tmax, Median/Average” value [5] was 0.5 h, the “t1/2, Median/Average” value [5] was 0.71 h and the Ki (human CGRP) was 0.023 nM. It also gave an AUC(0-t) (in vivo) of 40.3 ng·h/mL, an AUC(0-t) (in vivo; Median/Average) of 55.1 ng·h/mL and a Cmax (in vivo; Cmax, Median/Average) of 37 ng/mL. It also gave a Tmax (in vivo; Tmax, Median/Average) of 1 h, a half-life (in vivo; t1/2) of 0.54 h and a half-life (in vivo; t1/2, Median/Average) of 0.77 h.

In the case of sucrose dodecanoate, the NOAEL [6] is given as 20-30 grams/kilogram/day.
